The values that follow come from patent publication EP0246786A1, “N-1 subsituted sulfonylaminocarbonyl, C-4 substituted monobactams” (THE UPJOHN COMPANY, priority 1986, dated 1987).

Converted amounts (≈) assume the structure as drawn. Counter-ions that a name gives are not always drawn. Like-named read-outs stand apart in the source and are kept apart here.

Common to all, as to test: MIC by agar dilution (in vitro antimicrobial testing)
Common to all, as to assay type: cell-based
Background: In agar dilution the substance is mixed into plates at graded concentrations.

The subject of one assay is E. coli. As to conditions: Escherichia coli, 20 h, 35°C, read-out: Minimum Inhibitory Concentration. As for the experimental part: (§1) Compounds of the invention are tested for in vitro antimicrobial activity using standard testing procedures such as the determination of minimum inhibitory concentration (MIC) by agar dilution as described in "Methods for Dilution Antimicrobial Susceptibility Tests for Bacteria That Grow Aerobically" (MF-T) Published January 1983 by the National Committee for Clinical Laboratory Standards, 771 East Lancaster Avenue, Villanova, PA 19084. Briefly, MIC values are determined in unsupple- mented Mueller Hinton Agar (MHA). The compounds tested are diluted serially into molten MHA at 47°C. The agar is poured into petri dishes and allowed to harden. The various bacteria used for testing are grown overnight on MHA at 35°C and transferred to Tryptiease Soy Broth (TSB) until a turbidity of 0.5 McFarland standard is obtained. The bacteria are diluted one to twenty in TSB and inoculated on the plates (1 µl using a Steers replicator).

For a further assay, the system named is K. oxytoca. The note with it: Klebsiella oxytoca, read-out: Minimum Inhibitory Concentration. The method, then:
as §1

Another assay relates to K.pneumoniae. As to conditions: Klebsiella pneumoniae, read-out: Minimum Inhibitory Concentration. The method, then:
as §1

A further assay relates to Ps. aeruginosa. The note with it: Pseudomonas aeruginosa, 20 h, 35°C, read-out: Minimum Inhibitory Concentration. As for the experimental part:
as §1

[1] abbreviates: E. coli Culture No. 9379, Mueller Hinton Agar.
Setting [2] is: E. coli Culture No. 9380, Mueller Hinton Agar.
[3] abbreviates: E. coli Culture No. 9451, Mueller Hinton Agar.
Where [4] appears, read: Ps. aeruginosa Culture No. 231, Mueller Hinton Agar.
Where [5] appears, read: Ps. aeruginosa Culture No. 6432, Mueller Hinton Agar.
Where [6] appears, read: Ps. aeruginosa Culture No. 9191, Mueller Hinton Agar.

Consider `CC1C(NC(=O)C(=NOC(C)(C)C(=O)O)c2csc(N)n2)C(=O)N1S(=O)(=O)O` (stereo not shown) [Compound B, 2-[[[1-(2-amino-4-thiazolyl)-2-[(2-methyl-4-oxo-1-sulfo-3-azetidinyl)amino]-2-oxoethylidene]amino]oxy]-2-methylpropanoic acid], for which the MIC with E. coli (setting [1]) was determined as 0.03 µg/mL (≈ 0.0689 µM); in the assay on E. coli (setting [2]) it was 0.06 µg/mL (≈ 0.138 µM); in the assay with E. coli (setting [3]) it was 0.06 µg/mL (≈ 0.138 µM); with K. oxytoca (20 h), 0.03 µg/mL (≈ 0.0689 µM); in the assay with K.pneumoniae (20 h) it was 0.03 µg/mL (≈ 0.0689 µM); with Ps. aeruginosa (setting [4]) it was 8 µg/mL (≈ 18.4 µM). Besides, the figures for the MIC with Ps. aeruginosa (setting [5]) and in the assay on Ps. aeruginosa (setting [6]) were 8 µg/mL (≈ 18.4 µM) and 2 µg/mL (≈ 4.59 µM), respectively.
With `COC(=O)OC[C@@H]1[C@H](NC(=O)/C(=N\OCC(=O)O)c2csc(N)n2)C(=O)N1C(=O)NS(=O)(=O)N1CCN(NC(=O)c2cc(=O)c(O)c[nH]2)C1=O` (racemic) [Compound A, cis-(±)-3-[2-(2-Amino-4-thiazolyl)-(Z)-2-(carboxy-methoxyimino)acetamido]-1-[(5-hydroxy-4-pyridon-2-yl)carbonylamino-1-(2-imidazolidone-3-yl)sulfonylaminocarbonyl]-4-[(methoxycarbonyl)-oxymethyl]-2-azetidinone, dipotassium salt], the MIC with E. coli (setting [1]) was no more than 0.015 µg/mL; in the assay with E. coli (setting [2]), no more than 0.015 µg/mL; in the assay with E. coli (setting [3]), no more than 0.015 µg/mL; in the assay with K. oxytoca (K. oxytoca Culture No. 9384, Mueller Hinton Agar, 35°C, 20 hours), 0.06 µg/mL; with K.pneumoniae (K.pneumoniae Culture No. 58, Mueller Hinton Agar, 35°C, 20 hours) it was 1 µg/mL; in the assay on Ps. aeruginosa (setting [4]), 4 µg/mL. Further, the figures for the MIC with Ps. aeruginosa (setting [5]) and in the assay with Ps. aeruginosa (setting [6]) were 1 µg/mL and 4 µg/mL, respectively.
